The record followed here is PubChem BioAssay AID330 (DTP/NCI, 2004).

SMILES strings stand for the structures. Where “and” joins values, the source holds several entries; their conditions need not be identical. Equal entries are not always repeated. Inconclusive results and toxic doses are left out.

The experiment has as its system P388 leukemia ip, CD2F1 mice, survival T/C. Put plainly: NCI In Vivo Anticancer Drug Screen. Data for tumor model P388 Leukemia (intraperitoneal) in CD2F1 (CDF1) mice. Conditions: endpoint: median survival time, higher = longer survival. An outline of the steps:
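Mice carrying the transplanted tumor received test compound or vehicle. Survival was recorded in each group, and the value is the treated-group measurement divided by that of the vehicle-treated control group.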

Setting [1] is: dose: 50.0 mg/kg/injection, schedule: Q01DX009 (ip), vehicle: saline.
The mark [2] stands for this setting: dose: 25.0 mg/kg/injection, schedule: Q01DX009 (ip), vehicle: saline with Tween-80.
Where [3] appears, read: dose: 50.0 mg/kg/injection, schedule: Q01DX009 (ip), vehicle: saline with Tween-80.
Setting [4] is: dose: 50.0 mg/kg/injection, schedule: Q01DX005 (ip), vehicle: Klucel (hydroxypropylcellulose) (HPC).
Setting [5] is: dose: 100.0 mg/kg/injection, schedule: Q01DX005 (ip), vehicle: Klucel (hydroxypropylcellulose) (HPC).
Where [6] appears, read: dose: 200.0 mg/kg/injection, schedule: Q01DX005 (ip), vehicle: Klucel (hydroxypropylcellulose) (HPC).
Where [7] appears, read: dose: 100.0 mg/kg/injection, schedule: Q01DX009 (ip), vehicle: saline with Tween-80.
Setting [8] is: dose: 200.0 mg/kg/injection, schedule: Q01DX009 (ip), vehicle: saline with Tween-80.
Where [9] appears, read: dose: 100.0 mg/kg/injection, schedule: Q01DX001 (ip), vehicle: Klucel (hydroxypropylcellulose) (HPC).
Setting [10] is: dose: 200.0 mg/kg/injection, schedule: Q01DX001 (ip), vehicle: Klucel (hydroxypropylcellulose) (HPC).
Where [11] appears, read: dose: 50.0 mg/kg/injection, schedule: Q01DX009 (ip), vehicle: Klucel (hydroxypropylcellulose) (HPC).
Where [12] appears, read: dose: 100.0 mg/kg/injection, schedule: Q01DX009 (ip), vehicle: Klucel (hydroxypropylcellulose) (HPC).
The mark [13] stands for this setting: dose: 200.0 mg/kg/injection, schedule: Q01DX009 (ip), vehicle: Klucel (hydroxypropylcellulose) (HPC).
The mark [14] stands for this setting: dose: 60.0 mg/kg/injection, schedule: Q01DX005 (ip), vehicle: saline with Tween-80.

As to `COCCCn1c(-c2cc(OC)c(OC)c(OC)c2)nn2c(=O)c3ccccc3nc2c1=O`, the T/C under setting [1] is 102 % of control; the T/C (dose: 100.0 mg/kg/injection, schedule: Q01DX009 (ip), vehicle: saline) was 107 % of control; the T/C (dose: 200.0 mg/kg/injection, schedule: Q01DX009 (ip), vehicle: saline) was 101 % of control.
Regarding `C=CCN1CSC(=S)N(CC=C)C1`, the T/C is 98 % of control under setting [2]; 119 % of control and 94 % of control under setting [3].
Take `N#Cc1c(-c2ccc(Cl)cc2)c(-c2ccc(Cl)cc2)n[nH]c1=O`: the T/C under setting [4] was 100 % of control, the T/C under setting [5] is 99 % of control and the T/C under setting [6] was 104 % of control.
`O=C(NNC(=O)c1ccc(Cl)cc1Cl)c1ccco1`: the T/C (dose: 12.5 mg/kg/injection, schedule: Q01DX009 (ip), vehicle: saline) was 100 % of control; the T/C (dose: 25.0 mg/kg/injection, schedule: Q01DX009 (ip), vehicle: saline) was 102 % of control and 89 % of control; the T/C under setting [3] is 100 % of control; the T/C under setting [1] was 102 % of control and 97 % of control.
Turning to `O=C(O)/C=N/NS(=O)(=O)c1ccccc1`, the T/C (dose: 12.5 mg/kg/injection, schedule: Q01DX009 (ip), vehicle: water) was 113 % of control; the T/C (dose: 50.0 mg/kg/injection, schedule: Q01DX009 (ip), vehicle: water) is 153 % of control; the T/C (dose: 75.0 mg/kg/injection, schedule: Q01DX009 (ip), vehicle: water) is 163 % of control; the T/C (dose: 100.0 mg/kg/injection, schedule: Q01DX009 (ip), vehicle: water) was 99 % of control.
In the case of `CCC1(C)CCC2(C)C(CCC3C4(C)CCCC32OC4=O)C1` (stereo not given), the T/C by setting is: (dose: 25.0 mg/kg/injection, schedule: Q01DX005 (ip), vehicle: Klucel (hydroxypropylcellulose) (HPC)) 96 % of control; under setting [4], 99 % of control; under setting [5], 101 % of control and 103 % of control; under setting [6], 99 % of control.
Regarding `O=[n+]1c2c(n([O-])c3ccccc31)CCC2`, the T/C is 98 % of control under setting [3], 100 % of control under setting [7] and 108 % of control under setting [8].
Regarding `Cc1noc(-c2ccccc2)c1N=Nc1ccccc1`, the T/C under setting [9] is 99 % of control; the T/C under setting [10] is 105 % of control; the T/C (dose: 400.0 mg/kg/injection, schedule: Q01DX001 (ip), vehicle: Klucel (hydroxypropylcellulose) (HPC)) was 93 % of control.
Turning to `Cc1cc2nncn2c2nnnn12`, the T/C is 101 % of control (dose: 6.25 mg/kg/injection, schedule: Q01DX005 (ip), vehicle: water); 102 % of control (dose: 12.5 mg/kg/injection, schedule: Q01DX005 (ip), vehicle: water); 108 % of control (dose: 25.0 mg/kg/injection, schedule: Q01DX005 (ip), vehicle: water); 108 % of control (dose: 50.0 mg/kg/injection, schedule: Q01DX005 (ip), vehicle: water); 105 % of control (dose: 100.0 mg/kg/injection, schedule: Q01DX005 (ip), vehicle: water); 101 % of control (dose: 200.0 mg/kg/injection, schedule: Q01DX005 (ip), vehicle: water).
In the case of `CC(=O)Oc1c(C)c2c(O)c3c1C1=C(OCOC1=C(C)C3=O)C(C)=CC(C)(O)C(O)C(C)C(O)C1C(=O)OC(C(C)/C=C\C=C(C)C(=O)N2)C(C)C1O` (stereo not given), the T/C is 108 % of control under setting [4]; 99 % of control under setting [11]; 108 % of control under setting [5]; 100 % of control under setting [12]; 108 % of control under setting [6]; 104 % of control under setting [13]. Besides, the T/C (dose: 400.0 mg/kg/injection, schedule: Q01DX009 (ip), vehicle: Klucel (hydroxypropylcellulose) (HPC)) was 103 % of control.
For the compound `CCOC(=O)c1cc(=O)c2c(OC)ccc(OC)c2[nH]1`, the T/C (dose: 50.0 mg/kg/injection, schedule: Q01DX005 (ip), vehicle: saline with Tween-80) is 90 % of control; the T/C (dose: 100.0 mg/kg/injection, schedule: Q01DX005 (ip), vehicle: saline with Tween-80) was 98 % of control; the T/C (dose: 200.0 mg/kg/injection, schedule: Q01DX005 (ip), vehicle: saline with Tween-80) was 97 % of control.
Regarding `C=CC(=O)NCCSSCCNC(=O)C=C`, the T/C was 108 % of control (dose: 6.25 mg/kg/injection, schedule: Q01DX009 (ip), vehicle: saline with Tween-80); 99 % of control (dose: 12.5 mg/kg/injection, schedule: Q01DX009 (ip), vehicle: saline with Tween-80); 93 % of control under setting [2]; 98 % of control under setting [7].
On to `COc1ccc(Cc2ccc[nH]2)cc1`, for which the T/C is 97 % of control (dose: 100.0 mg/kg/injection, schedule: Q01DX001 (ip), vehicle: distilled water + alcohol); 97 % of control (dose: 200.0 mg/kg/injection, schedule: Q01DX001 (ip), vehicle: distilled water + alcohol); 96 % of control (dose: 400.0 mg/kg/injection, schedule: Q01DX001 (ip), vehicle: distilled water + alcohol).
For the compound `CNC(=O)c1cc([N+](=O)[O-])cnc1NC`, the T/C is 95 % of control under setting [11], 98 % of control under setting [12] and 92 % of control under setting [13].
`C/C(=C\C(=O)c1ccccc1)Nc1ccc(Cl)cc1`: the T/C is, setting by setting: under setting [2], 108 % of control; under setting [3], 92 % of control; under setting [7], 89 % of control; under setting [8], 99 % of control.
Turning to `Nc1ccc(C(=O)Nc2ccccc2N)cc1`, the T/C is, setting by setting: (dose: 100.0 mg/kg/injection, schedule: Q04DX003 (ip), vehicle: saline with Tween-80) 100 % of control; (dose: 200.0 mg/kg/injection, schedule: Q04DX003 (ip), vehicle: saline with Tween-80) 99 % of control; (dose: 400.0 mg/kg/injection, schedule: Q04DX003 (ip), vehicle: saline with Tween-80) 108 % of control.
As for `c1ccc2c(-c3nc4ccccc4c4ccccc34)nccc2c1`, the T/C (dose: 100.0 mg/kg/injection, schedule: Q01DX001 (ip), vehicle: saline with Tween-80) is 92 % of control; the T/C (dose: 200.0 mg/kg/injection, schedule: Q01DX001 (ip), vehicle: saline with Tween-80) was 92 % of control; the T/C (dose: 400.0 mg/kg/injection, schedule: Q01DX001 (ip), vehicle: saline with Tween-80) was 99 % of control.
As to `O=C(Cc1cccc(CC(=O)c2ccccc2)n1)c1ccccc1`, the T/C (dose: 15.0 mg/kg/injection, schedule: Q01DX005 (ip), vehicle: saline with Tween-80) is 108 % of control; the T/C (dose: 30.0 mg/kg/injection, schedule: Q01DX005 (ip), vehicle: saline with Tween-80) is 92 % of control; the T/C under setting [14] is 92 % of control and 93 % of control.
Turning to `COC(=O)c1nnn(-c2c(C)cccc2C(C)C)c1C(=O)c1ccccc1`, the T/C under setting [14] is 100 % of control; the T/C (dose: 120.0 mg/kg/injection, schedule: Q01DX005 (ip), vehicle: saline with Tween-80) is 109 % of control; the T/C (dose: 240.0 mg/kg/injection, schedule: Q01DX005 (ip), vehicle: saline with Tween-80) is 94 % of control.
Consider `COc1ccccc1C1OC2=C(Nc3ccc(Cl)cc3N2)C1=O` (stereo not given), for which the T/C is, setting by setting: (dose: 7.5 mg/kg/injection, schedule: Q01DX005 (ip), vehicle: Klucel (hydroxypropylcellulose) (HPC)) 100 % of control; (dose: 15.0 mg/kg/injection, schedule: Q01DX005 (ip), vehicle: Klucel (hydroxypropylcellulose) (HPC)) 93 % of control; (dose: 30.0 mg/kg/injection, schedule: Q01DX005 (ip), vehicle: Klucel (hydroxypropylcellulose) (HPC)) 87 % of control.
As to `O=C(N=C1SC(=NC2CCCCC2)N1C1CCCCC1)c1ccccc1`, the T/C under setting [9] is 95 % of control and the T/C under setting [10] was 100 % of control.
In the case of `Cc1nn2c(nnn2CCO)c1-c1ccccc1`, the T/C is, setting by setting: (dose: 60.0 mg/kg/injection, schedule: Q01DX005 (ip), vehicle: Klucel (hydroxypropylcellulose) (HPC)) 105 % of control; (dose: 120.0 mg/kg/injection, schedule: Q01DX005 (ip), vehicle: Klucel (hydroxypropylcellulose) (HPC)) 91 % of control; (dose: 240.0 mg/kg/injection, schedule: Q01DX005 (ip), vehicle: Klucel (hydroxypropylcellulose) (HPC)) 91 % of control.
As to `S=C1NCCNC(=S)SS1`, the T/C under setting [5] is 108 % of control.
With `O=C(/C=C/c1ccccc1)[c-]1[c-][c-][c-][c-]1.[Fe].[c-]1[c-][c-][cH-][c-]1`, the T/C is, setting by setting: under setting [4], 96 % of control; under setting [5], 109 % of control; under setting [6], 100 % of control.
